Literature values in patent US11406849B2, “Amino alcohol-containing skin cleansing composition for removing keratotic plugs from skin” (KAO CORPORATION, priority 2017, dated 2022).

For `NC(CO)(CO)CO` [Component (X1), 2-amino-2-hydroxymethyl-1,3-propanediol], the Solubility in water is given as “readily dissolved in water”.
For `CC(C)(N)CO` [Component (X2), 2-amino-2-methyl-1-propanol], the Solubility in water is given as “readily dissolved in water”.
